{"source": "ChEMBL document CHEMBL3865833", "about": "“Functional induction of P-glycoprotein efflux pump by phenyl benzenesulfonamides: Synthesis and biological evaluation of T0901317 analogs” (Eur J Med Chem, 2016)", "key": {"[1]": {"test": "Therapeutic index, ratio of effective concentration for cytotoxicity in human LS180 cells to effective concentration for activation of PXR/LXR in human LS180 cells assessed as induction of P-gp", "assay_type": "cell-based", "details": "read-out: TI"}, "[2]": {"test": "Cytotoxicity against human LS180 cells assessed as effect on cell viability at 50 uM measured after 24 hrs by MTT assay relative to control", "assay_type": "toxicity, cell-based", "details": "read-out: Activity"}, "[3]": {"test": "Cytotoxicity against human SH-SY5Y cells assessed as effect on cell viability at 50 uM measured after 24 hrs by MTT assay relative to control", "assay_type": "toxicity, cell-based", "details": "read-out: Activity"}, "LS180 [4]": {"tested_on": "LS180", "test": "(§1) Activation of PXR/LXR in human LS180 cells assessed as induction of P-gp measured as intracellular accumulation of Rhodamine-123 at 5 uM preincubated for 48 hrs followed by 40 mins incubation with HANKS buffer and subsequent addition of Rhodamine-123 measured after 90 mins by fluorescence analysis relative to control", "assay_type": "cell-based"}, "[5]": {"test": "Therapeutic index, ratio of effective concentration for cytotoxicity in human SH-SY5Y cells to effective concentration for activation of PXR/LXR in human LS180 cells assessed as induction of P-gp", "assay_type": "cell-based", "details": "read-out: TI"}, "LS180 [6]": {"tested_on": "LS180", "test": "Activation of PXR/LXR in human LS180 cells assessed as induction of P-gp at 5 uM measured after 24 hrs by Western blot analysis", "assay_type": "cell-based"}, "[7]": {"test": "Cytotoxicity against human LS180 cells assessed as effect on cell viability measured after 24 hrs by MTT assay", "assay_type": "toxicity, cell-based"}, "LS180 [8]": {"tested_on": "LS180", "test": "as §1, with “by measuring decrease in” for “measured as”, “0.3” for “5”, “assay” for “analysis relative to control”", "assay_type": "cell-based"}, "[9]": {"test": "Cytotoxicity against human SH-SY5Y cells assessed as effect on cell viability measured after 24 hrs by MTT assay", "assay_type": "toxicity, cell-based"}}, "note": "The source made the active and inactive calls. No cut-off for these calls is given here."}
{"smiles": "O=S(=O)(c1ccccc1)N(Cc1cn(-c2cccc(F)c2)nn1)c1ccc(C(O)(C(F)(F)F)C(F)(F)F)cc1", "values": [{"measurement": "selectivity ratio", "setting": "[1]", "value": 10}, {"measurement": "viability at 24 h, 50 µM", "setting": "[2]", "value": 56, "unit": "%"}, {"measurement": "viability at 24 h, 50 µM", "setting": "[3]", "value": 29.8, "unit": "%"}, {"measurement": "Activity", "setting": "LS180 [4]", "value": 90.3, "unit": "%"}, {"measurement": "selectivity ratio", "setting": "[5]", "value": 10}]}
{"smiles": "O=S(=O)(c1ccccc1)N(Cc1cn(-c2ccc(F)cc2F)nn1)c1ccc(C(O)(C(F)(F)F)C(F)(F)F)cc1", "values": [{"measurement": "viability at 24 h, 50 µM", "setting": "[2]", "value": 93.6, "unit": "%"}, {"measurement": "viability at 24 h, 50 µM", "setting": "[3]", "value": 86.5, "unit": "%"}, {"measurement": "Activity", "setting": "LS180 [4]", "value": 66.3, "unit": "%"}, {"measurement": "selectivity ratio", "setting": "[5]", "value": 10}]}
{"smiles": "Cc1ccc(-n2cc(CN(c3ccc(C(O)(C(F)(F)F)C(F)(F)F)cc3)S(=O)(=O)c3ccccc3)nn2)cc1C", "values": [{"measurement": "selectivity ratio", "setting": "[1]", "value": 10}, {"measurement": "viability at 24 h, 50 µM", "setting": "[2]", "value": 80, "unit": "%"}, {"measurement": "viability at 24 h, 50 µM", "setting": "[3]", "value": 68.7, "unit": "%"}, {"measurement": "Activity", "setting": "LS180 [4]", "value": 68.7, "unit": "%"}, {"measurement": "selectivity ratio", "setting": "[5]", "value": 10}]}
{"smiles": "O=S(=O)(c1ccccc1)N(Cc1cn(-c2ccc(OC(F)(F)F)cc2)nn1)c1ccc(C(O)(C(F)(F)F)C(F)(F)F)cc1", "values": [{"measurement": "selectivity ratio", "setting": "[1]", "value": 10}, {"measurement": "viability at 24 h, 50 µM", "setting": "[2]", "value": 68.7, "unit": "%"}, {"measurement": "viability at 24 h, 50 µM", "setting": "[3]", "value": 43.5, "unit": "%"}, {"measurement": "Activity", "setting": "LS180 [4]", "value": 67.8, "unit": "%"}, {"measurement": "selectivity ratio", "setting": "[5]", "value": 10}]}
{"smiles": "COc1ccc(-n2cc(CN(c3ccc(C(C)=O)cc3)S(=O)(=O)c3ccccc3)nn2)cc1", "values": [{"measurement": "selectivity ratio", "setting": "[1]", "value": 10}, {"measurement": "viability at 24 h, 50 µM", "setting": "[2]", "value": 93.3, "unit": "%"}, {"measurement": "viability at 24 h, 50 µM", "setting": "[3]", "value": 88.5, "unit": "%"}, {"measurement": "Activity", "setting": "LS180 [4]", "value": 86.3, "unit": "%"}, {"measurement": "selectivity ratio", "setting": "[5]", "value": 10}]}
{"smiles": "CC(=O)c1ccc(N(CC(F)(F)F)S(=O)(=O)c2ccccc2)cc1", "values": [{"measurement": "selectivity ratio", "setting": "[1]", "value": 10}, {"measurement": "viability at 24 h, 50 µM", "setting": "[2]", "value": 88.3, "unit": "%"}, {"measurement": "viability at 24 h, 50 µM", "setting": "[3]", "value": 81.3, "unit": "%"}, {"measurement": "Activity", "setting": "LS180 [4]", "value": 63.5, "unit": "%"}]}
{"smiles": "CC(=O)c1ccc(N(Cc2cn(-c3ccccc3C#N)nn2)S(=O)(=O)c2ccccc2)cc1", "values": [{"measurement": "selectivity ratio", "setting": "[1]", "value": 10}, {"measurement": "viability at 24 h, 50 µM", "setting": "[2]", "value": 91.8, "unit": "%"}, {"measurement": "viability at 24 h, 50 µM", "setting": "[3]", "value": 99, "unit": "%"}, {"measurement": "Activity", "setting": "LS180 [4]", "value": 86.2, "unit": "%"}, {"measurement": "selectivity ratio", "setting": "[5]", "value": 10}]}
{"smiles": "CC(=O)c1ccc(N(Cc2cn(-c3ccc(OC(F)(F)F)cc3)nn2)S(=O)(=O)c2ccccc2)cc1", "values": [{"measurement": "selectivity ratio", "setting": "[1]", "value": 10}, {"measurement": "viability at 24 h, 50 µM", "setting": "[2]", "value": 67.6, "unit": "%"}, {"measurement": "viability at 24 h, 50 µM", "setting": "[3]", "value": 64.4, "unit": "%"}, {"measurement": "Activity", "setting": "LS180 [4]", "value": 83.4, "unit": "%"}, {"measurement": "selectivity ratio", "setting": "[5]", "value": 10}]}
{"smiles": "CC(=O)c1ccc(N(Cc2ccccc2)S(=O)(=O)c2ccccc2)cc1", "values": [{"measurement": "selectivity ratio", "setting": "[1]", "value": 10}, {"measurement": "viability at 24 h, 50 µM", "setting": "[2]", "value": 89.5, "unit": "%"}, {"measurement": "viability at 24 h, 50 µM", "setting": "[3]", "value": 112, "unit": "%"}, {"measurement": "Activity", "setting": "LS180 [4]", "value": 64.5, "unit": "%"}]}
{"smiles": "CC(=O)c1ccc(N(Cc2cn(-c3ccccc3C(F)(F)F)nn2)S(=O)(=O)c2ccccc2)cc1", "values": [{"measurement": "selectivity ratio", "setting": "[1]", "value": 10}, {"measurement": "viability at 24 h, 50 µM", "setting": "[2]", "value": 112, "unit": "%"}, {"measurement": "Activity", "setting": "LS180 [6]", "value": "Active"}, {"measurement": "viability at 24 h, 50 µM", "setting": "[3]", "value": 83.9, "unit": "%"}, {"measurement": "Activity", "setting": "LS180 [4]", "value": 48.5, "unit": "%"}, {"measurement": "selectivity ratio", "setting": "[5]", "value": 10}]}
{"smiles": "O=S(=O)(c1ccccc1)N(CC(F)(F)F)c1ccc(C(O)(C(F)(F)F)C(F)(F)F)cc1", "note": "[T091317]", "values": [{"measurement": "IC50 at 24 h", "setting": "[7]", "value": "> 50", "unit": "µM"}, {"measurement": "Activity", "setting": "LS180 [8]", "value": "Active"}, {"measurement": "IC50 at 24 h", "setting": "[9]", "value": "> 50", "unit": "µM"}, {"measurement": "selectivity ratio", "setting": "[1]", "value": 10}, {"measurement": "viability at 24 h, 50 µM", "setting": "[2]", "value": 73.3, "unit": "%"}, {"measurement": "Activity", "setting": "LS180 [6]", "value": "Active"}, {"measurement": "viability at 24 h, 50 µM", "setting": "[3]", "value": 94.8, "unit": "%"}, {"measurement": "Activity", "setting": "LS180 [4]", "value": 64.2, "unit": "%"}, {"measurement": "selectivity ratio", "setting": "[5]", "value": 10}]}
{"smiles": "CC(=O)c1ccc(N(Cc2cn(-c3ccc(C(C)=O)cc3)nn2)S(=O)(=O)c2ccccc2)cc1", "values": [{"measurement": "selectivity ratio", "setting": "[1]", "value": 10}, {"measurement": "viability at 24 h, 50 µM", "setting": "[2]", "value": 87.3, "unit": "%"}, {"measurement": "viability at 24 h, 50 µM", "setting": "[3]", "value": 97.3, "unit": "%"}, {"measurement": "Activity", "setting": "LS180 [4]", "value": 66.2, "unit": "%"}, {"measurement": "selectivity ratio", "setting": "[5]", "value": 10}]}
{"smiles": "O=S(=O)(c1ccccc1)N(Cc1cn(-c2ccccc2F)nn1)c1ccc(C(O)(C(F)(F)F)C(F)(F)F)cc1", "values": [{"measurement": "Activity", "setting": "LS180 [8]", "value": "Active"}, {"measurement": "selectivity ratio", "setting": "[1]", "value": 10}, {"measurement": "viability at 24 h, 50 µM", "setting": "[2]", "value": 65.1, "unit": "%"}, {"measurement": "viability at 24 h, 50 µM", "setting": "[3]", "value": 129, "unit": "%"}, {"measurement": "Activity", "setting": "LS180 [4]", "value": 61.8, "unit": "%"}, {"measurement": "selectivity ratio", "setting": "[5]", "value": 10}]}
{"smiles": "CC(=O)c1ccc(N(Cc2cn(-c3ccc([N+](=O)[O-])cc3)nn2)S(=O)(=O)c2ccccc2)cc1", "values": [{"measurement": "selectivity ratio", "setting": "[1]", "value": 10}, {"measurement": "viability at 24 h, 50 µM", "setting": "[2]", "value": 74.7, "unit": "%"}, {"measurement": "viability at 24 h, 50 µM", "setting": "[3]", "value": 105, "unit": "%"}, {"measurement": "Activity", "setting": "LS180 [4]", "value": 55.6, "unit": "%"}, {"measurement": "selectivity ratio", "setting": "[5]", "value": 10}]}
{"smiles": "CC(=O)c1ccc(N(Cc2cn(-c3cccc(C(C)=O)c3)nn2)S(=O)(=O)c2ccccc2)cc1", "values": [{"measurement": "selectivity ratio", "setting": "[1]", "value": 10}, {"measurement": "viability at 24 h, 50 µM", "setting": "[2]", "value": 84.7, "unit": "%"}, {"measurement": "viability at 24 h, 50 µM", "setting": "[3]", "value": 78.7, "unit": "%"}, {"measurement": "Activity", "setting": "LS180 [4]", "value": 71, "unit": "%"}, {"measurement": "selectivity ratio", "setting": "[5]", "value": 10}]}
{"smiles": "CCOC(=O)c1ccc(-n2cc(CN(c3ccc(C(O)(C(F)(F)F)C(F)(F)F)cc3)S(=O)(=O)c3ccccc3)nn2)cc1", "values": [{"measurement": "selectivity ratio", "setting": "[1]", "value": 10}, {"measurement": "viability at 24 h, 50 µM", "setting": "[2]", "value": 76.5, "unit": "%"}, {"measurement": "viability at 24 h, 50 µM", "setting": "[3]", "value": 73.8, "unit": "%"}, {"measurement": "Activity", "setting": "LS180 [4]", "value": 91.3, "unit": "%"}, {"measurement": "selectivity ratio", "setting": "[5]", "value": 10}]}
{"smiles": "COC(=O)c1ccc(-n2cc(CN(c3ccc(C(C)=O)cc3)S(=O)(=O)c3ccccc3)nn2)cc1", "values": [{"measurement": "selectivity ratio", "setting": "[1]", "value": 10}, {"measurement": "viability at 24 h, 50 µM", "setting": "[2]", "value": 80.6, "unit": "%"}, {"measurement": "viability at 24 h, 50 µM", "setting": "[3]", "value": 71.8, "unit": "%"}, {"measurement": "Activity", "setting": "LS180 [4]", "value": 77, "unit": "%"}, {"measurement": "selectivity ratio", "setting": "[5]", "value": 10}]}
{"smiles": "O=S(=O)(c1ccccc1)N(Cc1cn(-c2ccc(F)cc2)nn1)c1ccc(C(O)(C(F)(F)F)C(F)(F)F)cc1", "values": [{"measurement": "selectivity ratio", "setting": "[1]", "value": 10}, {"measurement": "viability at 24 h, 50 µM", "setting": "[2]", "value": 51.5, "unit": "%"}, {"measurement": "viability at 24 h, 50 µM", "setting": "[3]", "value": 36.4, "unit": "%"}, {"measurement": "Activity", "setting": "LS180 [4]", "value": 70.5, "unit": "%"}, {"measurement": "selectivity ratio", "setting": "[5]", "value": 10}]}
